Assay results reported in PMC6630832, “3-Vinylazetidin-2-Ones: Synthesis, Antiproliferative and Tubulin Destabilizing Activity in MCF-7 and MDA-MB-231 Breast Cancer Cells” (Pharmaceuticals, 2019).
Like-named read-outs stand apart in the source and are kept apart here.

What was measured:
Assay type in all cases: cell-based
[1] = tested on: human MCF-7 breast cancer cells; assay: Cell viability (Alamar Blue) antiproliferative assay in MCF-7 cells
Experimental: The human breast carcinoma cell line MCF-7, was purchased from the European Collection of Animal Cell Cultures (ECACC) and was cultured in Eagle’s minimum essential medium with 10% fetal bovine serum, 2 mM L-glutamine and 100 μg/mL penicillin/streptomycin. The medium was supplemented with 1% non-essential amino acids. The human breast carcinoma cell line MDA-MB-231 was purchased from the European Collection of Animal Cell Cultures (ECACC). MDA-MB-231 cells were maintained in Dulbecco’s modified Eagle’s medium (DMEM) supplemeted with 10% (v/v) fetal bovine serum, 2 mM L-glutamine and 100 μg/mL penicillin/streptomycin (complete medium). All media contained 100 U/mL penicillin and 100 μg/mL streptomycin. Triple negative breast cancer Hs578T cells and its invasive variant Hs578Ts(i)8 were obtained as a kind gift from Dr. Susan McDonnell, School of Chemical and Bioprocess Engineering, University College Dublin and were cultured in Dulbecco’s Modified Eagle’s Media (DMEM) with GlutaMAX^TM-I, with the same supplement as for MDA-MB-231 cells in the absence of non-essential amino acids. HEK-293T normal epithelial embryonic kidney cells were cultured in Dulbecco’s Modified Eagle’s Medium (DMEM) with GlutaMAX^TM-I in the absence of non-essential amino acids. K562 and HL-60 cells were originally obtained from the European Collection of Cell Cultures (Salisbury, UK).The K562 cells were derived from a patient in the blast crisis stage of CML HL-60 cells were derive from a patient with acute myeloid leukaemia. Cells were cultured in RPMI-1640 Glutamax medium supplemented with 10% FCS media, and 100 μg/mL penicillin/streptomycin. Cells were maintained at 37 °C in 5% CO2 in a humidified incubator. All cells were sub-cultured three times/week (adherent cells by trypsinisation).
Cells were seeded at a density of 5 × 10^3 cells/well (MCF-7), in triplicate in 96-well plates. After 24 h, cells were then treated with either medium alone, vehicle [1% ethanol (v/v)] or with serial dilutions of CA-4 or β-lactam analogue. Cell viability for MCF-7 and MDA-MB-231 was analysed using the Alamar Blue assay (Invitrogen Corp, Thermo Fisher Scientific, 168 Third Avenue, Waltham, MA, USA) according to the manufacturer’s instructions. After 72 h, Alamar Blue [10% (v/v)] was added to each well and plates were incubated for 3–5 h at 37 °C in the dark. Fluorescence was read using a 96-well fluorimeter with excitation at 530 nm and emission at 590 nm. Results were expressed as percentage viability relative to vehicle control (100%). Dose response curves were plotted and IC50 values (concentration of drug resulting in 50% reduction in cell survival) were obtained using the commercial software package Prism (GraphPad Software, Inc., 2365 Northside, Suite 560, San Diego, CA, USA). Experiments were performed in triplicate on at least three separate occasions.

NCI 60 cell line panel = assay: NCI60 cell line screen (SRB assay), whole panel or sub-panels
Description: The results are summarized in Tables S3–S5, Supplementary Information.
Table S5: NCI 60 cell line mean screening results for selected compounds NCI Ref. Compound GI50 TGI LC50 […]
a GI50 and LC50 are the mean concentrations required to inhibit the growth and kill 50 % of the cells over the total NCI 60 cell line panel in the assay respectively. […]
over the total NCI 60 cell line panel.

SF295 = assay: NCI60 screen (SRB), CNS Cancer; conditions: Homo sapiens, SF-295
SNB-19 = assay: NCI60 screen (SRB), CNS Cancer; conditions: Homo sapiens
COLO 205 = assay: NCI60 screen (SRB), Colon Cancer; conditions: Homo sapiens
SK-MEL-28 = assay: NCI60 screen (SRB), Melanoma; conditions: Homo sapiens
IGROV1 = assay: NCI60 screen (SRB), Ovarian cancer; conditions: Homo sapiens, IGROV-1
UO-31 = assay: NCI60 screen (SRB), Renal cancer; conditions: Homo sapiens
KM12 = assay: NCI60 screen (SRB), Colon Cancer; conditions: Homo sapiens
CAKI-1 = assay: NCI60 screen (SRB), Renal cancer; conditions: Homo sapiens
NCI/ADR-RES = assay: NCI60 screen (SRB), Ovarian cancer; conditions: Homo sapiens
MCF-7 = assay: NCI60 screen (SRB), Breast cancer; conditions: Homo sapiens, MCF7
PC-3 = assay: NCI60 screen (SRB), Prostate cancer; conditions: Homo sapiens
UACC-62 = assay: NCI60 screen (SRB), Melanoma; conditions: Homo sapiens
LOX IMVI = assay: NCI60 screen (SRB), Melanoma; conditions: Homo sapiens
CCRF-CEM = assay: NCI60 screen (SRB), Leukemia; conditions: Homo sapiens
SF539 = assay: NCI60 screen (SRB), CNS Cancer; conditions: Homo sapiens, SF-539
[2] = Homo sapiens, MCF7, Table S9, MCF-7 IC50 at which the toxicity was estimated, read-out: IC50, MCF-7
[3] = mean over the total NCI 60 cell line panel
[4] = mean over the total NCI 60 cell line panel, read-out: GI50 (mean)
[5] = mean over the total NCI 60 cell line panel, read-out: LC50 (mean)
[6] = over the full 60 cell line panel, read-out: mean GI50
[7] = MCF7, human MCF-7 breast cancer cells, 72 h, mean ± SEM, read-out: Antiproliferative Activity IC50
[8] = NCI60 CNS Cancer cell line SF295, read-out: GI50
[9] = NCI60 CNS Cancer cell line SNB-19, read-out: GI50
[10] = Homo sapiens, MCF7, 72 h, human MCF-7 breast cancer cells, 72 h, mean ± SEM, read-out: Antiproliferative Activity IC50
[11] = NCI60 Colon Cancer cell line COLO 205, read-out: GI50
[12] = NCI60 Melanoma cell line SK-MEL-28, read-out: GI50
[13] = NCI60 Ovarian cancer cell line IGROV1, read-out: GI50
[14] = NCI60 Renal cancer cell line UO-31, read-out: GI50
[15] = NCI60 Colon Cancer cell line KM12, read-out: GI50
[16] = NCI60 Renal cancer cell line CAKI-1, read-out: GI50
[17] = NCI60 Ovarian cancer cell line NCI/ADR-RES, read-out: GI50
[18] = NCI result in MCF-7 cells, read-out: GI50
[19] = NCI60 Prostate cancer cell line PC-3, read-out: GI50
[20] = NCI60 Melanoma cell line UACC-62, read-out: GI50
[21] = NCI60 Melanoma cell line LOX IMVI, read-out: GI50
[22] = NCI60 Leukemia cell line CCRF-CEM, read-out: GI50
[23] = NCI60 CNS Cancer cell line SF539, read-out: GI50

| SMILES | TGI (mean) (NCI 60 cell line panel; [3]) | GI50 (NCI 60 cell line panel; [4]) | CC50 (NCI 60 cell line panel; [5]) | GI50 (NCI 60 cell line panel; 60 cell, read-out: GI50 (mean)) | CC50 (NCI 60 cell line panel; 60 cell, read-out: LC50 (mean)) | GI50 (NCI 60 cell line panel; 60 cell, read-out: mean GI50) | GI50 (SF295; [8]) | GI50 (SNB-19; [9]) | IC50 [1, 10] | GI50 (COLO 205; [11]) | GI50 (SK-MEL-28; [12]) | GI50 (IGROV1; [13]) | GI50 (UO-31; [14]) | GI50 (KM12; [15]) | GI50 (CAKI-1; [16]) | GI50 (NCI/ADR-RES; [17]) | GI50 (MCF-7; [18]) | GI50 (PC-3; [19]) | GI50 (UACC-62; [20]) | GI50 (LOX IMVI; [21]) | further results |
| --- | --- | --- | --- | --- | --- | --- | --- | --- | --- | --- | --- | --- | --- | --- | --- | --- | --- | --- | --- | --- | --- |
| COc1ccc(/C=C\c2cc(OC)c(OC)c(OC)c2)cc1O [CA-4, Combretastatin A-4, reference compound] | 10300 nM | 99.3 nM | 85500 nM |  |  |  |  |  |  |  |  |  |  |  |  |  |  |  |  |  | IC50 [1, 2]: 5.2 nM; GI50 (NCI 60 cell line panel; [6]): 99 nM |
| C=CC1C(=O)N(c2cc(OC)c(OC)c(OC)c2)C1c1ccc(OC)cc1 (centres unmarked) [Compound 7h, 4-(4-Methoxyphenyl)-1-(3,4,5-trimethoxyphenyl)-3-vinylazetidin-2-one] | 23440 nM |  |  | 52.5 nM | 75900 nM | 52 nM |  |  |  |  |  |  |  |  |  |  |  |  |  |  | GI50 (SF295): 35.8 nM; GI50 (SNB-19; SNB-19): 54.2 nM; IC50 [1, 7]: 20 ± 2.5 nM; GI50 (COLO 205; COLO 205): 20.6 nM; GI50 (SK-MEL-28; SK-MEL-28): 59.9 nM; GI50 (IGROV1): 40.4 nM; GI50 (UO-31; UO-31): 70.9 nM; CC50 (NCI 60 cell line panel; 60 cell, read-out: LC50): > 100000 nM; GI50 (KM12; KM12): 35.1 nM; GI50 (CAKI-1; CAKI-1): 392 nM; GI50 (NCI/ADR-RES; NCI/ADR-RES): 27.2 nM; GI50 (MCF-7): 30.6 nM; GI50 (PC-3; PC-3): 37.4 nM; GI50 (UACC-62; UACC-62): 50.2 nM; GI50 (LOX IMVI; LOX IMVI): 41.6 nM |
| C=CC1C(=O)N(c2cc(OC)c(OC)c(OC)c2)C1c1ccc(OC)c(O)c1 (centres unmarked) [Compound 7s, 4-[3-Hydroxy-4-methoxyphenyl]-1-(3,4,5-trimethoxyphenyl)-3-vinylazetidin-2-one] | 5890 nM |  |  | 22.9 nM | 74100 nM | 23 nM | 271 nM | 40.5 nM | 8 ± 0.71 nM | 32.1 nM | < 10 nM | < 10 nM | 11.1 nM | < 10 nM | 40.2 nM | < 10 nM | < 10 nM | < 10 nM | < 10 nM | < 10 nM | IC50 [1, 2]: 1.4 nM; GI50 (NCI 60 cell line panel; 60 cell): < 10 nM; CC50 (NCI 60 cell line panel; 60 cell, read-out: LC50): > 100000 nM |
| C=CC1C(=O)N(c2cc(OC)c(OC)c(OC)c2)C1c1ccc(OC)c(N)c1 (centres unmarked) [Compound 7t, 4-(3-Amino-4-methoxyphenyl)-1-(3,4,5-trimethoxyphenyl)-3-vinylazetidin-2-one] | 50120 nM |  |  | 47.9 nM | 89100 nM | 48 nM |  |  |  |  |  |  |  |  |  |  |  |  |  |  | GI50 (SF295): 21.3 nM; GI50 (SNB-19; SNB-19): 49 nM; IC50 [1, 7]: 17 ± 1.8 nM; GI50 (COLO 205; COLO 205): 17.5 nM; GI50 (SK-MEL-28; SK-MEL-28): 18.1 nM; GI50 (CCRF-CEM; CCRF-CEM): 32.6 nM; GI50 (IGROV1): 49.6 nM; GI50 (UO-31; UO-31): 64 nM; GI50 (SF539): < 10 nM; GI50 (KM12; KM12): 24.2 nM; GI50 (CAKI-1; CAKI-1): 32.9 nM; GI50 (NCI/ADR-RES; NCI/ADR-RES): < 10 nM; GI50 (MCF-7): < 10 nM; GI50 (PC-3; PC-3): 41.5 nM; GI50 (UACC-62; UACC-62): 12300 nM; GI50 (LOX IMVI; LOX IMVI): < 10 nM |
| C=CC1C(=O)N(c2cc(OC)c(OC)c(OC)c2)C1c1ccc(OC)c(OP(=O)(O)O)c1 (centres unmarked) [Compound 17b, 2-Methoxy-5-(1-(3,4,5-trimethoxyphenyl)-4-oxo-3-vinylazetidin-2-yl)phenyl dihydrogen phosphate] | 36300 nM | 72.4 nM | 87100 nM |  |  |  | 29.1 nM | 459 nM | 27 ± 2 nM | 1910 nM | 97.7 nM | 66.9 nM | 254 nM | 39.1 nM | 71.7 nM | 37 nM | 39.4 nM | 53.6 nM | 51.1 nM | 42.2 nM | GI50 (CCRF-CEM; [22]): 60.4 nM; GI50 (SF539; [23]): 42 nM |
| CCC1C(=O)N(c2cc(OC)c(OC)c(OC)c2)C1c1ccc(OC)c(OP(=O)(O)O)c1 (centres unmarked) [Compound 17c, 5-(3-Ethyl-1-(3,4,5-trimethoxyphenyl)-4-oxoazetidin-2-yl)-2-methoxyphenyl dihydrogen phosphate] | 43650 nM | 138 nM | 85100 nM |  |  |  | 24.3 nM | 63.9 nM | 21 ± 1.5 nM | 204 nM | 7460 nM | 37.6 nM | 42.6 nM | 22 nM | 35.2 nM | 19.1 nM | 25.1 nM | 34.9 nM | 34.8 nM | 24.1 nM | GI50 (CCRF-CEM; [22]): 32.5 nM; GI50 (NCI 60 cell line panel; [6]): 73 nM; GI50 (SF539; [23]): 16.2 nM |
